Reference: ChEMBL document CHEMBL1201862, “PubChem BioAssay data set” (2004)
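Five compound concentrations were applied to cells in 96-well plates for 48 hours; endpoints were derived by simple linear interpolation of the resulting dose-response curve. GI50 is the concentration that inhibits growth by half.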 Activity calls are given as the source filed them. Cut-off read from the data, not from the text of the source: active = GI50 up to about 1.1 µM and inactive = higher.

Assays:
Test in all cases: inhibition of tumour cell growth, NCI panel, 48 h
MCF7 = test system: MCF7
DU-145 = test system: DU-145
OVCAR-3 = test system: OVCAR-3
CCRF-CEM = test system: CCRF-CEM
UACC-62 = test system: UACC-62
OVCAR-4 = test system: OVCAR-4
NCI-H226 = test system: NCI-H226
UO-31 = test system: UO-31
SF-268 = test system: SF-268
SNB-19 = test system: SNB-19
KM12 = test system: KM12
A549 = test system: A549
BT-549 = test system: BT-549
NCI/ADR-RES = test system: NCI/ADR-RES
HCC 2998 = test system: HCC 2998
T47D = test system: T47D
NCI-H23 = test system: NCI-H23
LOX IMVI = test system: LOX IMVI
HCT-116 = test system: HCT-116
SF-295 = test system: SF-295
SNB-75 = test system: SNB-75
SK-MEL-2 = test system: SK-MEL-2
IGROV-1 = test system: IGROV-1
A498 = test system: A498
RPMI-8226 = test system: RPMI-8226
MDA-MB-231 = test system: MDA-MB-231
PC-3 = test system: PC-3
HOP-92 = test system: HOP-92
HCT-15 = test system: HCT-15
OVCAR-8 = test system: OVCAR-8
Hs-578T = test system: Hs-578T
K562 = test system: K562
TK-10 = test system: TK-10
EKVX = test system: EKVX
UACC-257 = test system: UACC-257
CAKI-1 = test system: CAKI-1
NCI-H460 = test system: NCI-H460
RXF 393 = test system: RXF 393
MDA-N = test system: MDA-N
ACHN = test system: ACHN
SN12C = test system: SN12C
M14 = test system: M14
SF-539 = test system: SF-539
COLO 205 = test system: COLO 205
MOLT-4 = test system: MOLT-4
786-0 = test system: 786-0
OVCAR-5 = test system: OVCAR-5
SK-MEL-5 = test system: SK-MEL-5
HL-60 = test system: HL-60
Malme-3M = test system: Malme-3M
HOP-62 = test system: HOP-62
SK-OV-3 = test system: SK-OV-3
HT-29 = test system: HT-29
MDA-MB-435 = test system: MDA-MB-435
SR = test system: SR
SK-MEL-28 = test system: SK-MEL-28
U-251 = test system: U-251
SW-620 = test system: SW-620
NCI-H522 = test system: NCI-H522

In the case of `CCCCCCCCCCCCCCCC(=O)ON1C(=S)NC(C)(c2ccccc2)C1=S` (stereo not drawn), the GI50 (MCF7) is reported as > 100 µM (inactive), the GI50 (DU-145) is reported as > 100 µM (inactive) and the GI50 (OVCAR-3) is reported as > 100 µM (inactive). For the same compound, the GI50 (CCRF-CEM) was 36.4 µM (inactive), the GI50 (UACC-62) was > 100 µM (inactive) and the GI50 (OVCAR-4) was > 100 µM (inactive). For the same compound, the GI50 (NCI-H226) was 87.9 µM (inactive), the GI50 (UO-31) was > 100 µM (inactive) and the GI50 (SF-268) was 73.6 µM (inactive). For the same compound, the GI50 (SNB-19) was > 100 µM (inactive), the GI50 (KM12) was > 100 µM (inactive) and the GI50 (A549) was > 100 µM (inactive). For the same compound, the GI50 (BT-549) was > 100 µM (inactive), the GI50 (NCI/ADR-RES) was > 100 µM (inactive) and the GI50 (HCC 2998) was 38.5 µM (inactive). For the same compound, the GI50 (T47D) was > 100 µM (inactive), the GI50 (NCI-H23) was > 100 µM (inactive) and the GI50 (LOX IMVI) was 45.2 µM (inactive). For the same compound, the GI50 (HCT-116) was > 100 µM (inactive), the GI50 (SF-295) was 2.11 µM (inactive) and the GI50 (SNB-75) was > 100 µM (inactive). The GI50 (SK-MEL-2) was > 100 µM (inactive), the GI50 (IGROV-1) was 79.3 µM (inactive) and the GI50 (A498) was > 100 µM (inactive). For the same compound, the GI50 (RPMI-8226) was > 100 µM (inactive), the GI50 (MDA-MB-231) was > 100 µM (inactive) and the GI50 (PC-3) was 62.2 µM (inactive). For the same compound, the GI50 (HOP-92) was > 100 µM (inactive), the GI50 (HCT-15) was 51.4 µM and the GI50 (OVCAR-8) was > 100 µM (inactive). The GI50 (Hs-578T) was > 100 µM (inactive), the GI50 (K562) was 38.2 µM (inactive) and the GI50 (TK-10) was > 100 µM (inactive). The GI50 (EKVX) was > 100 µM (inactive), the GI50 (UACC-257) was > 100 µM (inactive) and the GI50 (CAKI-1) was > 100 µM (inactive). The GI50 (NCI-H460) was > 100 µM (inactive), the GI50 (RXF 393) was > 100 µM (inactive) and the GI50 (MDA-N) was > 100 µM (inactive). The GI50 (ACHN) was > 100 µM (inactive), the GI50 (SN12C) was > 100 µM (inactive) and the GI50 (M14) was 30.3 µM (inactive). The GI50 (SF-539) was > 100 µM (inactive), the GI50 (COLO 205) was > 100 µM (inactive) and the GI50 (MOLT-4) was 33.5 µM (inactive). The GI50 (786-0) was 60 µM (inactive), the GI50 (OVCAR-5) was > 100 µM (inactive) and the GI50 (SK-MEL-5) was > 100 µM (inactive). For the same compound, the GI50 (HL-60) was 94.6 µM (inactive), the GI50 (Malme-3M) was > 100 µM (inactive) and the GI50 (HOP-62) was > 100 µM (inactive). The GI50 (SK-OV-3) was > 100 µM (inactive) and the GI50 (HT-29) was 55.2 µM (inactive).
For `CCN(CCCN(CC)C(=O)N[C@@H](Cc1ccccc1)C(=O)NC)C(=O)N[C@@H](Cc1ccccc1)C(=O)NC`, the GI50 (DU-145) was > 100 µM (inactive), the GI50 (OVCAR-3) was > 100 µM (inactive) and the GI50 (UACC-62) was > 100 µM (inactive). The GI50 (MDA-MB-435) was > 100 µM (inactive), the GI50 (OVCAR-4) was > 100 µM (inactive) and the GI50 (SR) was > 100 µM (inactive). The GI50 (NCI-H226) was > 100 µM (inactive), the GI50 (UO-31) was > 100 µM (inactive) and the GI50 (SF-268) was > 100 µM (inactive). The GI50 (SNB-19) was > 100 µM (inactive), the GI50 (KM12) was > 100 µM (inactive) and the GI50 (SK-MEL-28) was > 100 µM (inactive). For the same compound, the GI50 (A549) was > 100 µM (inactive), the GI50 (BT-549) was > 100 µM (inactive) and the GI50 (NCI/ADR-RES) was > 100 µM (inactive). The GI50 (U-251) was > 100 µM (inactive), the GI50 (HCC 2998) was > 100 µM (inactive) and the GI50 (T47D) was > 100 µM (inactive). For the same compound, the GI50 (NCI-H23) was > 100 µM (inactive), the GI50 (LOX IMVI) was > 100 µM (inactive) and the GI50 (HCT-116) was > 100 µM (inactive). The GI50 (SF-295) was > 100 µM (inactive), the GI50 (SK-MEL-2) was > 100 µM (inactive) and the GI50 (SW-620) was > 100 µM (inactive). The GI50 (A498) was > 100 µM (inactive), the GI50 (MDA-MB-231) was > 100 µM (inactive) and the GI50 (PC-3) was > 100 µM (inactive). The GI50 (HOP-92) was > 100 µM (inactive), the GI50 (HCT-15) was greater than 100 µM and the GI50 (OVCAR-8) was > 100 µM (inactive). For the same compound, the GI50 (Hs-578T) was > 100 µM (inactive), the GI50 (TK-10) was > 100 µM (inactive) and the GI50 (EKVX) was > 100 µM (inactive). For the same compound, the GI50 (UACC-257) was > 100 µM (inactive), the GI50 (CAKI-1) was > 100 µM (inactive) and the GI50 (NCI-H460) was > 100 µM (inactive). For the same compound, the GI50 (RXF 393) was > 100 µM (inactive), the GI50 (NCI-H522) was > 100 µM (inactive) and the GI50 (MDA-N) was > 100 µM (inactive). The GI50 (ACHN) was > 100 µM (inactive), the GI50 (M14) was > 100 µM (inactive) and the GI50 (SF-539) was > 100 µM (inactive). For the same compound, the GI50 (COLO 205) was > 100 µM (inactive), the GI50 (786-0) was > 100 µM (inactive) and the GI50 (OVCAR-5) was > 100 µM (inactive). For the same compound, the GI50 (SK-MEL-5) was > 100 µM (inactive), the GI50 (Malme-3M) was > 100 µM (inactive) and the GI50 (HOP-62) was > 100 µM (inactive). For the same compound, the GI50 (SK-OV-3) was > 100 µM (inactive) and the GI50 (HT-29) was > 100 µM (inactive).
